Reference: patent US9144578B2, “Fixed-dose association of phytate and zinc” (Universitat De Les Illes Balears, priority 2006, dated 2015)
“Also recorded” adds a separate entry of the source.

How the values were obtained:
[1] = in vitro kinetics of precipitation of hydroxyapatite (Example 2, FIG. 2); conditions: [phosphate]=2.5 mM, [Ca^2+]=60 mg/l, pH=7.5
Experimental: In said FIG. 2 it is shown that the first series corresponds to the direct precipitation without phytate or Zn^2+. The second consists of the addition of 0.3 μM of Zn^2+. […] The third series corresponds to the precipitation of hydroxyapatite in the presence of 1.5 μM of phytate.
Finally, two series using 1.5 μM phytate and two different concentrations of zinc: Zn^2+: 0.3 μM (phytate-Zn molar ratio 5:1) and 0.15 μM (phytate-Zn molar ratio 10:1), respectively, are shown.
(§1) With the same system as in example 1, a system using the following experimental conditions: [phosphate]=2.5 mM, [Ca^2+]=60 mg/l, pH=7.5, was used. The kinetics of precipitation of the hydroxyapatite was recorded with a Shimadzu (UV-120-02) spectrophotometer using 3 ml plastic vials and recording the absorbance every 5 minutes at 550 nm.

[2] = in vitro kinetics of precipitation of hydroxyapatite (Example 1, FIG. 1); conditions: [phosphate]=1.5 mM, [Ca^2+]=60 mg/l, pH=7.5
Experimental: In said FIG. 1 it is shown that the first curve corresponds to direct precipitation without phytate or Zn^2+. The second (Zn^2+) consists of the addition of 0.038 μM of Zn^2+. […] The third curve (Phytate) corresponds to the precipitation of hydroxyapatite in the presence of 0.38 μM of phytate. […] Finally, the last graph (Phytate+Zn^2+) corresponds to the precipitation in the presence of 0.38 μM of phytate and 0.038 μM of Zn^2+ (phytate-Zn molar ratio 10:1).
as §1, with “An in vitro system was designed to study” for “With”, “kinetics of precipitation of hydroxyapatite. A” for “same system as in example 1, a”, “[phosphate]=1.5” for “[phosphate]=2.5”

In the case of `O=P(O)(O)O[C@H]1[C@H](OP(=O)(O)O)[C@@H](OP(=O)(O)O)[C@H](OP(=O)(O)O)[C@@H](OP(=O)(O)O)[C@H]1OP(=O)(O)O` [Phytate, Myo-inositol hexaphosphate], the “inhibiting effect on precipitation of hydroxyapatite” value (“inhibiting effect on precipitation” for short) ([1]; 1.5 μM of phytate) is reported as “significant inhibiting effect” and the “inhibiting effect on precipitation” value ([2]; 0.38 μM of phytate) is reported as “significant inhibiting effect”.

In the case of `[Zn+2]` [Zn^2+], the “inhibiting effect on precipitation” value ([1]; 0.3 μM of Zn^2+) is reported as “no inhibiting effect; also recorded: does not show any inhibiting effect” and the “inhibiting effect on precipitation” value ([2]; 0.038 μM of Zn^2+) is reported as “no inhibiting effect”.
